One may read the inhibition as the drop in the measured response relative to a control, in per cent.

For 69 molecules, inhibition results are on record in paper PMC8041284, “Tunable Methacrylamides for Covalent Ligand Directed Release Chemistry” (Journal of the American Chemical Society, 2021).

The target of this test is BTK (Homo sapiens, UniProt Q06187). Description: biochemical. The following applies: read-out: BTK inhibition (%), 0.75 uM BTK, […] probe 3l, 15 min preincubation.
Chain of BTK (Q06187 402-655 limits assumed): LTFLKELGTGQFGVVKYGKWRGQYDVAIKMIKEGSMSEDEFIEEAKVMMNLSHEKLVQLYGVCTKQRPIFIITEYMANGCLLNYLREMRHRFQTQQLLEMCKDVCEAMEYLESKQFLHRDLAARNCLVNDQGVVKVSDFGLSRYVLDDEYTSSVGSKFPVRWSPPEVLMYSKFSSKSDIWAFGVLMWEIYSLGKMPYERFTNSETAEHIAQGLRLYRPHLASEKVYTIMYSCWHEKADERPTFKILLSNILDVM
For the molecule `C[C@@H](c1nc(-c2ccc(C#N)cc2)cs1)[C@](O)(Cn1cncn1)c1cc(F)ccc1F` [PCM-0214918], the inhibition at 10 µM was -14%. The result for `Cc1[nH]c2ccccc2c1CCNC(=O)c1cccs1` [PCM-0095767] reads -6.9%; that for `CN(C)CCOc1ccc(/C(=C(/CCCl)c2ccccc2)c2ccccc2)cc1` [PCM-0086582], 4.1%.

Take `CCC(C)(C)c1ccc(CC(C)CN2C[C@@H](C)O[C@@H](C)C2)cc1` (stereo partly drawn) [PCM-0090274]: the inhibition at 10 µM was -31.9%.

Turning to `O=C(O)COc1nn(Cc2ccccc2)c2ccccc12` [PCM-0216238], the inhibition at 10 µM is -3.1%. The same measure for `O=c1c2cc(O[C@@H]3O[C@H](CO)[C@@H](O)[C@H](O)[C@H]3O)c(O)cc2oc2cc(O)c([C@@H]3O[C@H](CO)[C@@H](O)[C@H](O)[C@H]3O)c(O)c12` [PCM-0214972]: -3.1%; for `O=C(O)c1cn(-c2ccc(F)cc2)c2cc(N3CCNCC3)c(F)cc2c1=O` [PCM-0086286]: -3.4%. The same measure for `CC1(C)S[C@@H]2[C@H](NC(=O)[C@H](NC(=O)N3CCN(S(C)(=O)=O)C3=O)c3ccccc3)C(=O)N2[C@H]1C(=O)O` [PCM-0214758]: -19.5%; for `CN1CCN(c2cccc(Nc3nc4c(-c5ccc(S(C)(=O)=O)cc5)cccn4n3)c2)CC1` [PCM-0095404]: 41.4%; for `COC1=C(OC)C(=O)C(CCCCCCCCCCO)=C(C)C1=O` [PCM-0085939]: -11%. Turning to `CC(=O)O[C@H]1C(=O)[C@@]2(C)[C@H]([C@H](OC(=O)c3ccccc3)[C@]3(O)C[C@H](OC(=O)[C@H](O)[C@@H](NC(=O)c4ccccc4)c4ccccc4)C(C)=C1C3(C)C)[C@]1(OC(C)=O)CO[C@@H]1C[C@@H]2O` [PCM-0214601], the inhibition at 10 µM was -17.9%.

For the molecule `COc1ccccc1S(=O)(=O)Nc1ccc2c(c1)CN(C)C(=O)N2` [PCM-0094933], the inhibition at 10 µM was 6.2%. The same measure for `COc1cc2c(cc1O)CC[C@@H]1[C@@H]2CC[C@]2(C)[C@@H](O)CC[C@@H]12` [PCM-0214607]: -2.8%; for `Cc1nc(-c2ccc(OCC(C)C)c(C#N)c2)sc1C(=O)O` [PCM-0090390]: -3.4%; for `Cc1cccc(Oc2cnc(=O)[nH]c2)c1` [PCM-0215674]: -17%. The same measure for `CC1(C)S[C@@H]2[C@H](NC(=O)[C@H](N)c3ccccc3)C(=O)N2[C@H]1C(=O)O` [PCM-0214636]: -1.6%; for `C/C(=N\NC(=O)c1cccc(S(=O)(=O)N2CCOCC2)c1)c1cc(Cl)ccc1O` [PCM-0215399]: 25.5%.

On to `COc1ccc(C(C)=O)c(O)c1` [PCM-0091399], for which the inhibition at 10 µM came out at 6.2%.

On to `C[C@H](C(=O)O)c1ccc(-c2ccccc2)c(F)c1` [PCM-0095117], for which the inhibition at 10 µM was -2.1%.

Consider `CCCCCCC1CCC(=O)O1` (stereo not drawn) [PCM-0216147], for which the inhibition at 10 µM is 0%. The same measure for `O=C(NC1(c2ccccc2)CC1)c1c(CN2CCC(N3CCCCC3)CC2)c(-c2cccc(C(F)(F)F)c2)nc2cc(Br)ccc12` [PCM-0215818]: 36.3%; for `C[C@@H]1CC[C@@]2(NC1)O[C@H]1C[C@H]3[C@@H]4CC=C5C[C@@H](O[C@@H]6O[C@H](CO)[C@@H](O[C@@H]7O[C@@H](C)[C@H](O)[C@@H](O)[C@H]7O)[C@H](O)[C@H]6O[C@@H]6O[C@@H](C)[C@H](O)[C@@H](O)[C@H]6O)CC[C@]5(C)[C@H]4CC[C@]3(C)[C@H]1[C@@H]2C` [PCM-0216423]: 17.8%.

Consider `Cc1[nH]c2ccccc2c1CCNCc1ccc(/C=C/C(=O)NO)cc1` [PCM-0095679], for which the inhibition at 10 µM turned out to be 0.8%. Take `CN1CCc2c(c3ccccc3n2Cc2ccc(C(=O)NO)cc2)C1` [PCM-0095487]: the inhibition at 10 µM was determined as 0.8%.

`O=C1N=C(O)CN1/N=C/c1ccc(-c2ccc([N+](=O)[O-])cc2)o1` [PCM-0086748]: the inhibition at 10 µM is 28%. The same measure for `CC(C)c1ccccc1Cc1cc(C(=O)Nc2ccc(S(=O)(=O)c3ccccc3C(C)(C)C)cc2)c(O)c(O)c1O` [PCM-0094924]: 54.5%. The result for `O=C(O)c1cc2cccc([N+](=O)[O-])c2[nH]1` [PCM-0095778] reads 0.8%.

`Cc1ccc(NC(=O)Nc2cc(-c3ccccc3-c3nn[nH]n3)ccc2N(CC(C)C)CC(C)C)cc1` [PCM-0215955]: the inhibition at 10 µM stood at 72.6%. As for `O=C(COc1ccc(C(=O)c2ccccc2)cc1)NC1CCN(Cc2ccccc2)CC1` [PCM-0215280], the inhibition at 10 µM was -33.2%.

Consider `CC(C)=CCCC(C)CCO` (stereo not drawn) [PCM-0216208], for which the inhibition at 10 µM is -7.7%. On to `Nc1ccc(Oc2ccc(-c3ccc(Oc4ccc(N)cc4)cc3)cc2)cc1` [PCM-0216586], for which the inhibition at 10 µM was -7.7%. The same measure for `CC(C)C[C@H](NP(=O)(O)O[C@@H]1O[C@@H](C)[C@H](O)[C@@H](O)[C@H]1O)C(=O)N[C@@H](Cc1c[nH]c2ccccc12)C(=O)O` [PCM-0215347]: 14.7%; for `O=C(O)CNC(=O)c1nc(Cl)c2ccccc2c1O` [PCM-0215583]: 10.8%.

With `CCN1CC(CCN2CCOCC2)C(c2ccccc2)(c2ccccc2)C1=O` (stereo not drawn) [PCM-0095590], the inhibition at 10 µM was 8.6%.

Consider `O=[N+]([O-])c1ccc2c(c1)S(=O)(=O)C=C2` [PCM-0065368], for which the inhibition at 10 µM stood at 40.9%.

On to `Cc1cc(O)c(-c2ccc([C@@H](C)CN(C)C)cc2)c2c1[nH]c(=O)c1sccc12` [PCM-0215805], for which the inhibition at 10 µM is 38.6%. The result for `O=c1[nH]c(=O)n([C@H]2C[C@H](O)[C@@H](CO)O2)cc1C(F)(F)F` [PCM-0086194] reads 2.3%.

For `O=C1c2cccc(O)c2C(=O)c2c(O)cc(CO)cc21` [PCM-0095288], the inhibition at 10 µM came to 16.3%. The result for `O=CC[C@@H](O)[C@H](O)[C@H](O)CO` [PCM-0214849] reads 5.4%. Turning to `CCc1cc(C(N)=S)ccn1` [PCM-0086071], the inhibition at 10 µM is -14.8%. The same measure for `O=c1[nH]c([C@@H]2CCCN2)nc2c1oc1ccc(Cl)cc12` [PCM-0215335]: -0.9%; for `CC[C@H](C)[C@H](N)C(=O)O` [PCM-0215927]: 7.7%; for `COC(=O)N[C@H](C(=O)N1CC2(CC2)C[C@H]1c1ncc(-c2ccc3c(c2)C(F)(F)c2cc(-c4ccc5nc([C@@H]6[C@H]7CC[C@H](C7)N6C(=O)[C@@H](NC(=O)OC)C(C)C)[nH]c5c4)ccc2-3)[nH]1)C(C)C` [PCM-0215396]: 74.9%. The same measure for `CC(C)CCNc1ncccc1C(=O)N1CCN(Cc2ccccc2)CC1` [PCM-0216256]: -30.1%; for `Nc1cc(F)ccc1NC(=O)/C=C/c1cnn(C/C=C/c2ccccc2)c1` [PCM-0095774]: 9.3%; for `CN(C)C(=S)NN=C(c1ccccn1)c1ccccn1` [PCM-0215522]: 20.1%. The same measure for `Cc1cccc(-c2[nH]ncc2-c2ccc3ncccc3n2)n1` [PCM-0065277]: 13.9%; for `C[N+]1(C)CCCC(OC(=O)C(O)(c2ccccc2)c2ccccc2)C1` (stereo not drawn) [PCM-0215256]: -7.8%.

Turning to `O=C1c2ccccc2-c2n[nH]c3cccc1c23` [PCM-0012406], the inhibition at 10 µM is 18.6%. The result for `Cn1cc[nH]c1=S` [PCM-0086540] reads 14.8%. The result for `Cn1cc(/C=C/C(=O)c2cccc(F)c2)cc1/C=C/C(=O)NO` [PCM-0095164] reads 34.2%; that for `CN1[C@@H]2CC[C@H]1CC(OC(c1ccccc1)c1ccccc1)C2` (stereo partly drawn) [PCM-0086292], -3.1%; that for `CNC(=O)c1ccccc1Nc1nc(Nc2ccc(N3CCOCC3)cc2OC)ncc1Cl` [PCM-0095447], 67.6%. The result for `OC[C@H]1OC(O)[C@H](O)[C@@H](O)[C@@H]1O` (stereo partly drawn) [PCM-0095297] reads -10.1%. With `CC(C)(CCCCCC(O)CCCCCC(C)(C)C(=O)O)C(=O)O` [PCM-0215634], the inhibition at 10 µM is 0.7%. The result for `CC1(C)O[C@@H]2C[C@H]3[C@@H]4CCC5=CC(=O)C=C[C@]5(C)[C@H]4[C@@H](O)C[C@]3(C)[C@]2(C(=O)CO)O1` [PCM-0214648] reads 4.8%; that for `COc1cc(O)c(CC=C(C)C)c2c1C(=O)CC(c1ccc(O)cc1)O2` (stereo not drawn) [PCM-0216367], 8.5%; that for `O=c1ccn([C@@H]2O[C@H](CO)[C@@H](O)[C@H]2O)c(=O)[nH]1` [PCM-0091168], 7.8%. The same measure for `O=C1C[C@@H](c2ccccc2)Oc2cc(O)cc(O)c21` [PCM-0214944]: 11.7%. The result for `O=C(Nc1cccc(Cl)c1)Nc1ncc(CCNc2ncnc3ccsc23)s1` [PCM-0094983] reads 73.1%.

On to `Clc1ccc(C(c2ccccc2Cl)C(Cl)Cl)cc1` (stereo not drawn) [PCM-0064460], for which the inhibition at 10 µM turned out to be 19.5%.

As to `CCOC(=O)c1[nH]c2cc(Cl)ccc2c1C(C(=O)NC(C)(C)C)N(C=O)Cc1ccc(Cl)cc1` (stereo not drawn) [PCM-0095744], the inhibition at 10 µM is 13.1%. The result for Ac-PHSCN-NH2 [PCM-0215851] reads -5.1%; that for `C[C@@H]1O[C@@H](OC[C@H]2O[C@@H](Oc3cc(O)c4c(c3)O[C@H](c3ccc(O)cc3)CC4=O)[C@H](O)[C@@H](O)[C@@H]2O)[C@H](O)[C@H](O)[C@H]1O` [PCM-0216493], 10.8%; that for `O=C(O)c1c[nH]c2ccccc12` [PCM-0215132], 6.2%. The result for `C=CC(=O)Nc1cc(Nc2nccc(-c3cn(C)c4ccccc34)n2)c(OC)cc1N(C)CCN(C)C` [PCM-0215305] reads 80.7%; that for `CCOC(=O)[C@H](CCc1ccccc1)N[C@H]1CCc2ccccc2N(CC(=O)O)C1=O` [PCM-0086130], -24.9%.

Turning to `COc1ccc(-c2oc3c(CC=C(C)C)c(O[C@@H]4C[C@H](CO)[C@@H](O)[C@H](O)[C@H]4O)cc(O)c3c(=O)c2O[C@@H]2O[C@@H](C)[C@H](O)[C@@H](O)[C@H]2O[C@@H]2O[C@H](CO)[C@@H](O)[C@H](O)[C@H]2O)cc1` [PCM-0216510], the inhibition at 10 µM is -15.4%.

As to `CC1COC2(CCN(c3nc(=O)c4cc(C(F)(F)F)cc([N+](=O)[O-])c4s3)CC2)O1` (stereo not drawn) [PCM-0095074], the inhibition at 10 µM was 4.7%.
